We go through 3 molecules from patent publication US9243039B2, “Bipartite inhibitors of bacterial RNA polymerase: Sal-target-inhibitor/nucleoside-analog-inhibitor conjugates” (priority 2012, dated 2016).

One data set addresses Escherichia coli RNAP (Escherichia coli, UniProt P0A8T7+P0A8V2). Briefly: Fluorescence-detected RNAP assay, Escherichia coli RNAP. The class given is biochemical. The note with it: fluorescent-detected RNAP assays. On the procedure:
Fluorescence-detected RNAP assays with Escherichia coli RNAP were performed by a modification of the procedure of Kuhlman et al., 2004 [Kuhlman et al., Anal. Biochem. 324:183-190, 2004]. Reaction mixtures contained (20 μl): […] test compound, 75 nM Escherichia coli RNAP […] holoenzyme, 20 nM 384 by DNA fragment containing the bacteriophage T4 N25 promoter, 100 μM ATP, 100 μM GTP, 100 μM UTP, 100 μM CTP, 50 mM Tris-HCl, pH 8.0, 100 mM KCl, 10 mM MgCl2, 1 mM DTT, 10 μg/ml bovine serum albumin, and 5.5% glycerol. Reaction components other than DNA and NTPs were pre-incubated for 10 min at 37° C. Reactions were carried out by addition of DNA and incubation for 5 min at 37° C., followed by addition of NTPs and incubation for 60 min at 37° C. DNA was removed by addition of 1 μl 5 mM CaCl2 and 2 U DNaseI (Ambion, Inc.), followed by incubation for 90 min at 37° C. RNA was quantified by addition of 100 μl RiboGreen RNA Quantitation Reagent (Invitrogen, Inc.; 1:500 dilution in Tris-HCl, pH 8.0, 1 mM EDTA), followed by incubation for 10 min at 25° C., followed by measurement of fluorescence intensity [excitation wavelength=485 nm and emission wavelength=535 nm; QuantaMaster QM1 spectrofluorometer (PTI, Inc.)].
(§1) Half-maximal inhibitory concentrations (IC50s) were calculated by non-linear regression in SigmaPlot (SPSS, Inc.).

In data set [1] the test system is Escherichia coli D21f2toIC. Briefly: Antibacterial activity, broth microdilution, Escherichia coli D21f2tolC. The class given is cell-based. The note with it: minimal concentration resulting in ≧50% inhibition of bacterial growth. The text has this: (§2) Antibacterial activity was quantified using broth microdilution [Clinical and Laboratory Standards Institute (CLSUNCCLS), Methods for Dilution Antimicrobial Susceptibility Tests for Bacteria That Grow Aerobically; Approved Standard, Eighth Edition. CLIS Document M07-A8 (CLIS, Wayne Pa.), 2009]. Assays with Enterobacter cloacae ATCC 13047, Pseudomonas aeruginosa ATCC10145, and Escherichia coli D21f2to1C, employed a starting cell density of 2-5×10^5 cfu/ml, Mueller Hinton II cation adjusted broth (BD Biosciences, Inc.), and an air atmosphere. Assays with Haemophilus influenzae ATCC49247 and Neisseria gonorrhoeae ATCC 19424 employed a starting cell density of 2-5×10^5 cfu/ml, Haemophilus Test Medium broth (Barry et al., 1993) and a 5% CO2/95% air atmosphere. MIC50 was defined as the minimal concentration resulting in ≧50% inhibition of bacterial growth.

The test system of another data set is Haemophilus influenzae. Kind of data set: Antibacterial activity, broth microdilution, Haemophilus influenzae. Format: cell-based. The note with it: in words, Gram-negative bacterial pathogen.
Description: as §2

For the next data set, the system named is human RNAP I/II/III. Kind of data set: Radiochemical assay with human RNAP I, II and III (HeLaScribe nuclear extract). Format: biochemical. The settings on record: for inhibition of human RNAP I, II, and III: in words. On the procedure:
Radiochemical assays with human RNAP I, II, and III were performed essentially as described [Sawadogo and Roeder, Cell 43:165-75, 1985]. Reaction mixtures contained (20 μl): 0-100 μM test compound, 8 U HeLaScribe Nuclear Extract (Promega, Inc.), 1 μg human placental DNA (Sigma-Aldrich), 400 μM ATP, 400 μM [α^32P]UTP (0.11 Bq/fmol), 400 μM CTP, 400 μM GTP, 50 mM Tris-HCl, pH 8.0, 7 mM HEPES-NaOH, 70 mM (NH4)2SO4, 50 mM KCl, 12 mM MgCl2, 5 mM DTT, 0.1 mM EDTA, 0.08 mM phenylmethylsulfonyl fluoride, and 16% glycerol. Reaction components other than DNA and NTPs were pre-incubated 10 min at 30° C., DNA was added and reaction mixtures were incubated 15 min at 30° C., NTPs were added and reaction mixtures were incubated 60 min at 30° C. Reaction mixtures were spotted on DE81 filter discs (Whatman, Inc.; pre-wetted with water) and incubated 1 min at room temperature. Filters were washed with 3×3 ml Na2HPO4, 2×3 ml water, and 3 ml ethanol, using a filter manifold (Hoefer, Inc.). Filters were placed in scintillation vials containing 10 ml Scintiverse BD Cocktail (Thermo Fisher, Inc.), and radioactivity was quantified by scintillation counting (LS6500; Beckman-Coulter, Inc.).
as §1

For data set [2], the system named is Gram-positive and Gram-negative bacterial RNAP. Briefly: Inhibition of bacterial RNAP in vitro (radiochemical RNAP assays). Format: biochemical. The settings on record: in words, disclosed herein. On the procedure:
Radiochemical RNAP assays with Escherichia coli RNAP and Staphylococcus aureus RNAP were performed as follows: Reaction mixtures contained (10 μl): 0-100 μM test compound, bacterial RNAP holoenzyme [75 nM Escherichia coli RNAP holoenzyme (prepared as in Mukhopadhyay et al., Meths. Enzymol. 371:144-159, 2003) or 75 nM Staphylococcus aureus RNAP core enzyme and 300 nM Staphylococcus aureus σ^A (prepared as in Srivastava et al., Curr. Opin. Microbiol. 14:532-543, 2011)], 20 nM DNA fragment N25-lacUV5-14 [positions −100 to −1 of the bacteriophage T5 N25 promoter followed by positions +1 to +29 of the lacUV5(+10A; +15C) promoter; prepared by PCR amplification of a synthetic nontemplate-strand oligodeoxyribonucleotide], 0.5 mM ApA, 100 μM [α^32P]UTP (0.2 Bq/fmol), 100 μM ATP, and 100 μM GTP in TB (50 mM Tris-HCl, pH 7.9, 100 mM KCl, 10 mM MgCl2, 1 mM DTT, 100 μg/ml bovine serum albumin, and 5% glycerol). […] Products were applied to 7 M urea 15% polyacrylamide (19:1 acrylamide:bisacrylamide) slab gels (Bio-Rad), electrophoresed in TBE (90 mM Tris-borate, pH 8.0, and 2 mM EDTA), and analyzed by storage-phosphor scanning (Typhoon; GE Healthcare, Inc.).
as §1

The subject of the next data set is Pseudomonas aeruginosa. Kind of data set: Antibacterial activity, broth microdilution, Pseudomonas aeruginosa. Format: cell-based. The note with it: in words, Gram-negative bacterial pathogen.
Description: as §2

Data set [3] relates to Enterobacter cloacae ATCC 13047. Kind of data set: Antibacterial activity, broth microdilution, Enterobacter cloacae. The class given is cell-based. The settings on record: for antibacterial activity against Enterobacter cloacae: in words, Gram-negative bacterial pathogen; for MIC50 Enterobacter cloacae ATCC 13047: minimal concentration resulting in ≧50% inhibition of bacterial growth.
Description: as §2

For another data set, the system named is Neisseria gonorrhoeae. Briefly: Antibacterial activity, broth microdilution, Neisseria gonorrhoeae. The class given is cell-based. The note with it: in words, Gram-negative bacterial pathogen.
Description: as §2

Data set [4] relates to Gram-positive bacterial pathogens. The settings on record: in words, reported previously (Trischman 1994; Moore 1999); cited from earlier work.
The next data set deals with Vero E6 ATCC CRL1586. Briefly: Cytotoxicity to mammalian cells in culture (CellTiter96). Format: cell-based. The note with it: for inhibition of growth of mammalian cells in culture: in words; for MIC50 Vero E6 ATCC CRL1586: mammalian cells in culture. The source says:
MICs for mammalian cells (Vero E6) in culture were quantified using CellTiter96 assay (Promega. Inc.; procedures as specified by the manufacturer). Screening data for SalA and SalB (compounds 1 and 2) and representative compounds of this invention (compounds 3-9) are presented in Tables 1-2: […]

A further data set has as its system Sal-resistant mutants. The settings on record: Ebright et al., WO/2012/129173; cited from earlier work.
In another data set the test system is RNAP. Briefly: Mechanism of inhibition of RNAP by Sal. The note with it: in words. Format: biochemical.
Data set [5] concerns Gram-positive and Gram-negative bacterial RNAP. The settings on record: in words, reported previously (Miao et al. 1997); cited from earlier work.
For data set [6], the system named is mutants resistant to other RNAP inhibitors. The settings on record: disclosed herein.
For data set [7] the test system is unchanged. The settings on record: Ebright et al., WO/2012/129173; cited from earlier work.

Read-outs that look alike come from different tables or passages of the source.

Escherichia coli RNAP, sequence (P0A800 whole entry, the tested form may be a part): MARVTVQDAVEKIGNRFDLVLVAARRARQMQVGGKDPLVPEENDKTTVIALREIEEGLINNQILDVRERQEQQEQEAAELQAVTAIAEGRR
Escherichia coli RNAP, sequence (P00579 whole entry, further chain, the tested form may be a part): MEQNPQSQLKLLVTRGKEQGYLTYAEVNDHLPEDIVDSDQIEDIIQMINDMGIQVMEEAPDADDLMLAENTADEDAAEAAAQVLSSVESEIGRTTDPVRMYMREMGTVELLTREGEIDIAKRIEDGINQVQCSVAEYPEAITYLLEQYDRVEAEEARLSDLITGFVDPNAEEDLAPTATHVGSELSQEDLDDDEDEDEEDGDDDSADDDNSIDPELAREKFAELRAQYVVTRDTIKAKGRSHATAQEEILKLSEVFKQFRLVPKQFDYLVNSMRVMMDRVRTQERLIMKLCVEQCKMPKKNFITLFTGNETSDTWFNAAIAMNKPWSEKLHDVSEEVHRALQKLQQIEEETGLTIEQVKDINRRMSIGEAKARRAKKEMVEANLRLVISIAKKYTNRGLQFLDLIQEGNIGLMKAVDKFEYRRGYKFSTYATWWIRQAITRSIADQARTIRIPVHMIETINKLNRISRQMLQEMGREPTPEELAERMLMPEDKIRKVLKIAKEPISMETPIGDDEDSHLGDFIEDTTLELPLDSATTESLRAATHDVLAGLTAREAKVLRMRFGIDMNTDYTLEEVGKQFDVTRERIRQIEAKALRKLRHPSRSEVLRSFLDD
Escherichia coli RNAP, sequence (P0A8V2 whole entry, the tested form may be a part): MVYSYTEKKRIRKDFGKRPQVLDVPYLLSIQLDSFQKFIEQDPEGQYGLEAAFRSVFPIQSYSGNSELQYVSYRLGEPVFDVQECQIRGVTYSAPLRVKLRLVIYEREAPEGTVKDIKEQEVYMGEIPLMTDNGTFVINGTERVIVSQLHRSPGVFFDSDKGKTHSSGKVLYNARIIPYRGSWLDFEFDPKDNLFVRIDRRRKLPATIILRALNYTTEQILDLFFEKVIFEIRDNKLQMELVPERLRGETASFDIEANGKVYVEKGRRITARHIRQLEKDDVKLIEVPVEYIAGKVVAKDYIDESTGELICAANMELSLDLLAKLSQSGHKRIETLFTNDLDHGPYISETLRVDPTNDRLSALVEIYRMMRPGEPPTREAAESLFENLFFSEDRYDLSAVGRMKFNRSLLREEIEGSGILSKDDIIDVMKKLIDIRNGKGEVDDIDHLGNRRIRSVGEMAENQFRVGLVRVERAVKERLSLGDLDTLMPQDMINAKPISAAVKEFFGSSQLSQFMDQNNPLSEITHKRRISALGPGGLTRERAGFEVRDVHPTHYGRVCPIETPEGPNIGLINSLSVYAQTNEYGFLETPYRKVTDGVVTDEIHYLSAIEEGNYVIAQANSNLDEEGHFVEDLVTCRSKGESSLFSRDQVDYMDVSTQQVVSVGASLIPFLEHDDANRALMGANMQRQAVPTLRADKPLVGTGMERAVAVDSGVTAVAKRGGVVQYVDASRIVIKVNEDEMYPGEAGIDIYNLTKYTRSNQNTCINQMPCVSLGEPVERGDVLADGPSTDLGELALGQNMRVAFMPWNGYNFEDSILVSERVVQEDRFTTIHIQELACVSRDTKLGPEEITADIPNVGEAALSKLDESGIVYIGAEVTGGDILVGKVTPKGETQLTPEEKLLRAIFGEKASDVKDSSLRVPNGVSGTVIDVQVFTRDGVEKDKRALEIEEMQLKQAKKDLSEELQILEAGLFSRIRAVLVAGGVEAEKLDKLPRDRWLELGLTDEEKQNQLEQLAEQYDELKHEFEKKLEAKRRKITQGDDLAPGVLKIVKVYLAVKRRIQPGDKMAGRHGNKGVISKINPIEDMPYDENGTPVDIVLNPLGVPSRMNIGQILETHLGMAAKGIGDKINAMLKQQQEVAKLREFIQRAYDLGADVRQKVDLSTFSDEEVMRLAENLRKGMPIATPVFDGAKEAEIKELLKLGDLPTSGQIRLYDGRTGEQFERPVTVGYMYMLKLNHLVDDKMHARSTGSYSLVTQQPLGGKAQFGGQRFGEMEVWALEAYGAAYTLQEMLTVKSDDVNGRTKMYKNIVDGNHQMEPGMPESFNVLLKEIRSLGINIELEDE
Escherichia coli RNAP, sequence (P0A8T7 whole entry, the tested form may be a part): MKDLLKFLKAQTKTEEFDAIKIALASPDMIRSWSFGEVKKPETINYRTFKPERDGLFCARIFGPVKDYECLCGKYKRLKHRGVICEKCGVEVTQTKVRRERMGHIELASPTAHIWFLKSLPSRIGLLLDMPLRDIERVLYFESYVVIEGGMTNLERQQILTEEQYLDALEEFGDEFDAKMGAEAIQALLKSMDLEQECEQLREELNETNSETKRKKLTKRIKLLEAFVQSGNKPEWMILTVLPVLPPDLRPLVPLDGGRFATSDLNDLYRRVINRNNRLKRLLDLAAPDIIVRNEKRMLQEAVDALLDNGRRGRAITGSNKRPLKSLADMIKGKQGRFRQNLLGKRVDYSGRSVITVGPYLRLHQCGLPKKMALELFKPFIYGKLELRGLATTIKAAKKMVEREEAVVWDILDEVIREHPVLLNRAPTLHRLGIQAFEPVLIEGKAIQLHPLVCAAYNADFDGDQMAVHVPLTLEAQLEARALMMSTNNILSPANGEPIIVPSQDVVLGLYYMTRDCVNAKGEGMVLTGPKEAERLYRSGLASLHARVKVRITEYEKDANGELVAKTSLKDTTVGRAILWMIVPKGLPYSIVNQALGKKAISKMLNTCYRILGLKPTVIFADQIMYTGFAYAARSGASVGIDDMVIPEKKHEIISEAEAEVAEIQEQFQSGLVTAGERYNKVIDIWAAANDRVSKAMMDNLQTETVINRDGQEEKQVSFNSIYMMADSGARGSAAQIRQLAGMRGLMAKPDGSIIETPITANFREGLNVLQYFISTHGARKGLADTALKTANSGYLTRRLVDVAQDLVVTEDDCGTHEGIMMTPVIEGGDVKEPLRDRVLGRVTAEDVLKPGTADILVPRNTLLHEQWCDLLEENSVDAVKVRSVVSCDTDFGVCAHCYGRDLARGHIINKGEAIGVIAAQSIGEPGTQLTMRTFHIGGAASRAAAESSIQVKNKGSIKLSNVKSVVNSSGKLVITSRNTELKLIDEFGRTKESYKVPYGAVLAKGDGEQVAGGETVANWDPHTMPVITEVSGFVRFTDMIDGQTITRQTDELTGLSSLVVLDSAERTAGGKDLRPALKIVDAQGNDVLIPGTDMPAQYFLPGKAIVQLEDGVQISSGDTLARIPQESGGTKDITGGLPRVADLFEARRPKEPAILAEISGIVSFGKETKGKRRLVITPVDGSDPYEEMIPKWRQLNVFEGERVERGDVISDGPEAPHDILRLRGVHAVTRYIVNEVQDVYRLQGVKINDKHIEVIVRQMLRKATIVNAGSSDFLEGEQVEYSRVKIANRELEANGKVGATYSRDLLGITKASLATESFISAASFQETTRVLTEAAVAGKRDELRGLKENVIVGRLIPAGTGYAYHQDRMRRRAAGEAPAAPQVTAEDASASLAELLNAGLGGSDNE
Escherichia coli RNAP, sequence (P0A7Z4 whole entry, further chain, the tested form may be a part): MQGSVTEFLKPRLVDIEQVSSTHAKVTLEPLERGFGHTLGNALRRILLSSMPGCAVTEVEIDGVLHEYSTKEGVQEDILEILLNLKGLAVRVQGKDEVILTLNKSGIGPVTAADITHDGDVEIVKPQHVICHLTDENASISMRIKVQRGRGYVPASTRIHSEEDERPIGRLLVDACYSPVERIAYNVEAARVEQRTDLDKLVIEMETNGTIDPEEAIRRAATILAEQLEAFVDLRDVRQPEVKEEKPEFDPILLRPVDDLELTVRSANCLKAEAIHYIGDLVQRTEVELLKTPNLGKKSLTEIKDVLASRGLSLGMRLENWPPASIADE

salinamide B [SalB (2)] gave an IC50 against Escherichia coli RNAP of 1 µM. Further, the “MIC50 Escherichia coli D21f2toIC” value in data set [1] was 0.098 µg/mL. The “antibacterial activity against Haemophilus influenzae” value in the data set on Haemophilus influenzae is “exhibit antibacterial activity”. Further, in the data set with human RNAP I/II/III, the half-maximal inhibitory concentration (IC50) was over 100 µM; the “inhibition of human RNAP I, II, and III” value is listed as “do not detectably inhibit”. For the same molecule, the “inhibition of Gram-positive and Gram-negative bacterial RNAP in vitro” value in [2] is reported as “inhibits”. Besides, the “antibacterial activity against Pseudomonas aeruginosa” value with Pseudomonas aeruginosa is on record as “exhibit antibacterial activity”. For the same molecule, in data set [3], the “antibacterial activity against Enterobacter cloacae” value was “exhibit antibacterial activity” and the “MIC50 Enterobacter cloacae ATCC 13047” value was 6.25 µg/mL. Moreover, the “antibacterial activity against Neisseria gonorrhoeae” value in the data set with Neisseria gonorrhoeae was “exhibit antibacterial activity”. Moreover, the “antibacterial activity against Gram-positive bacterial pathogens” value in data set [4] is recorded as “exhibit antibacterial activity”. Besides, in the data set with Vero E6 ATCC CRL1586, the “inhibition of growth of mammalian cells in culture” value is recorded as “do not detectably inhibit growth” and the “MIC50 Vero E6 ATCC CRL1586” value is over 100 µg/mL.

With `ONC(=Nc1ccccc1)c1cccc(C(F)(F)F)c1` [CBR703], the “cross-resistance of Sal-resistant mutants to the compound” value with Sal-resistant mutants is “not cross-resistant”.

Consider Salinamide A [SalA (1)], for which, in the data set with RNAP, the “inhibition of formation of the RNAP-promoter open complex in transcription initiation” value is recorded as “does not inhibit”; the “inhibition of nucleotide addition in both transcription initiation and transcription elongation” value is “inhibits”; the “inhibition of wild-type RNAP versus RNAP-derivative having a deletion of the trigger loop” value is “equal extents”; the “mode of transcription inhibition with respect to NTP substrate” value is “noncompetitive”. The 50% inhibitory concentration (IC50) against Escherichia coli RNAP stood at 1 µM. The “MIC50 Escherichia coli D21f2toIC” value in data set [1] stood at 0.024 µg/mL. For the same molecule, in the data set on Haemophilus influenzae, the “antibacterial activity against Haemophilus influenzae” value was “exhibit antibacterial activity”. Also, in [5], the “inhibition of Gram-positive and Gram-negative bacterial RNAP in vitro” value is reported as “inhibits”. Also, in [6], the “cross-resistance to Sal of streptolydigin-resistant, myxopyronin-resistant, and lipiarmycin-resistant mutants” value is recorded as “do not exhibit cross-resistance”. Besides, in the data set with human RNAP I/II/III, the IC50 is over 100 µM; the “inhibition of human RNAP I, II, and III” value is recorded as “do not detectably inhibit”. Moreover, the “antibacterial activity against Pseudomonas aeruginosa” value in the data set on Pseudomonas aeruginosa was “exhibit antibacterial activity”. Further, in [3], the “antibacterial activity against Enterobacter cloacae” value is listed as “exhibit antibacterial activity” and the “MIC50 Enterobacter cloacae ATCC 13047” value stood at 1.56 µg/mL. In addition, in the data set with Neisseria gonorrhoeae, the “antibacterial activity against Neisseria gonorrhoeae” value is recorded as “exhibit antibacterial activity”. Besides, in data set [7], the “cross-resistance to Sal of CBR703-resistant mutants” value is on record as “not cross-resistant” and the “cross-resistance to Sal of rifamycin-resistant mutants” value is recorded as “not cross-resistant”. Further, the “antibacterial activity against Gram-positive bacterial pathogens” value in [4] is given as “exhibit antibacterial activity”. Further, in the data set with Vero E6 ATCC CRL1586, the “inhibition of growth of mammalian cells in culture” value is recorded as “do not detectably inhibit growth” and the “MIC50 Vero E6 ATCC CRL1586” value is over 100 µg/mL.
